For data set [1] the following is noted: cited from earlier work.
For data set [2] the following is noted: soil and water runoff; cited from earlier work.
For data set [3], the system named is barnacle or mussel larvae. Nature of the data set: biocide-impregnated polymer without outer biostatic layer exposed to larvae. It is filed as in vivo. Particulars: weeks or months later; no outer biostatic layer. The source says: With respect to undesirable effects on the aquatic environment and the benign and beneficial organisms that reside there, the outer biostatic layer is less potentially hazardous both for the chemical and physical reasons mentioned above and shields the water from contact with the more potentially hazardous inner biocidal layer. Also, when an occasional barnacle or mussel larva penetrates the outer layer and touches the inner layer as a juvenile, it is killed quickly and outright on contact. It has been experimentally observed that, when a polymer impregnated with a biocidal biocide such as ivermectin is exposed to barnacle or mussel larvae, and there is no outer biostatic attachment inhibiting polymer layer present, that larvae do attach regardless and grow on the surface of the polymer layer. The organisms with their tiny shells can be seen with a magnifying glass. […] With the present embodiments, the area of the puncture site of the inner layer is microscopic and thus nothing leaks out of the inner layer into the surrounding water.

Converted amounts (≈) assume the structure as drawn. Like-named read-outs stand apart in the source and are kept apart here.

With `Cc1cccc(C(C)c2cnc[nH]2)c1C` (stereo not shown) [Medetomidine], the water solubility in data set [1] was 186 µg/mL (≈ 929 µM).
With `[Ag+].[O-][n+]1ccccc1[S-]` [silver pyrithione], the water solubility entry in data set [1] (silver pyrithione) is given as “about 37 per L”.
In the case of `CC[C@H]1CCC[C@H](O[C@H]2CC[C@H](N(C)C)[C@@H](C)O2)[C@@H](C)C(=O)C2=C[C@@H]3[C@@H](C=C(C)[C@@H]4C[C@@H](O[C@@H]5O[C@@H](C)[C@H](OC)[C@@H](OC)[C@H]5OC)C[C@@H]34)[C@@H]2CC(=O)O1` [spinosad D], the “adsorption coefficient KOC” value in data set [2] is on record as 34,600.
On to `CC(C)[C@]12O[C@H]1[C@@H]1O[C@]13[C@]1(O[C@H]1C[C@H]1C4=C(CC[C@@]13C)C(=O)OC4)[C@@H]2O` [triptolide], for which, in data set [1], the water solubility was 0.017 µg/mL (≈ 0.0472 µM).
With `[O]=[Zn]` [zinc oxide], in data set [1] (pure water), the water solubility entry is reported as “about 16 mg/L”.
ivermectin: the “adult barnacles or mussels on the polymer layer” value in data set [3] is reported as “no adult barnacle or mussel adults are seen”.
Regarding pyrethrins, in data set [2], the “adsorption coefficient KOC” value was > 100,000. The water solubility in data set [1] is below 0.1 µg/mL.
As to spinosad, the “adsorption coefficient KOC” value in data set [2] was 34,600.
As to zinc pyrithione, the water solubility entry in data set [1] (metal pyrithione salts) was “about 12 mg per L”.

Values taken from patent publication US10829649B2, “Methods and coatings for protecting surfaces from bio-fouling species” (priority 2018, dated 2020).
